Test system: LnCaP cells
Assay: LnCaP cell uptake and internalization
Format: cell-based
Settings: Table 4, 177Lu-labelled, 37 °C, 45 min
Description: Table 4. Conditions and results of LnCaP cell uptake
wherein [formula] Table 5. Detailed results of LnCaP cell uptake

Compound: O=C(O)CC[C@H](NC(=O)N[C@@H](CCCCNC(=O)[C@H](Cc1ccc2ccccc2c1)NC(=O)[C@H]1CC[C@H](CNC(=O)CN2CCN(CC(=O)O)CCN(CC(=O)O)CCN(CC(=O)O)CC2)CC1)C(=O)O)C(=O)O [VWT001500, PSMA-617]
- Cellular uptake results, internalization rate%: 9.57%
- Cellular uptake results, uptake rate%: 1.01%
